Test results from patent US20260215428A1, “WEED CONTROL METHOD” (SYNGENTA CROP PROTECTION AG, priority 2023, published 2026).

How the values were obtained:
Type in all cases: in vivo
[1] = system: Eleusine indica; experiment: Glasshouse post-emergence test, visual damage, Tables B1-2 and B1-3; conditions: 14 days after application
Experimental: Seeds of a variety of test species are sown in standard soil in pots. For each treatment, three replicate pots containing 10-15 plants per one-inch pot were sprayed at the 2-3 leaf stage. […] The test plants are then grown in a glasshouse under controlled conditions in a glasshouse (at 24/16° C., day/night; 14 hours light; 65% humidity) and watered twice daily. Plants were assessed for visual damage compared to the untreated control 14 days after application (0=0% damage; 100=100% damage).

[2] = system: Echinochloa Crus-galli; experiment: Further glasshouse test versus other ACCase-inhibiting herbicides, Table B2-5; conditions: 21 days after application
Text: (§1) Further tests were employed to test the efficacy of a compound of Formula I versus other ACCase-inhibiting herbicides. The five main targets were Lolium multiflorum, Eleusine indica, Digitaria insularis, Sorghum halepense and Echinochloa crus-galli. Collectively, the populations contained all the major target-site resistance mutations affecting ACCase herbicides. Two L. multiflorum (LM-NTSR-1 and LM-NTSR-2) and one E. crus-galli (ECG-NTSR-1) populations were characterised exclusively by non-target-site resistance (“NTSR”). The target-site resistant L. multiflorum and E. indication populations were 100% homozygous for different ACCase mutations whilst the D. insularis, S. halepense and E. crus-galli samples contained a mixture of homozygous wild and mutant individuals at different genotypic frequencies. Additional underlying NTSR cannot be ruled out in the populations characterised by target-site resistance.
(§2) Around 50 seeds of each of the 24 weed populations were sown in 12-cm pots containing a mixture of peat and compost in a 1:1 ratio. The pots were watered, fertilised and kept in controlled glasshouse conditions set at 24° C./16 hr day, 18° C. night, 65% relative humidity, and a photon flux density of approximately 250 μmol quanta m^−2 s^−1 for Lolium multiflorum. The E. indica, D. insularis, S. halepense and E. crus-galli plants were kept in a separate glasshouse bay characterised by a 17 H photoperiod of 180 μmol m^−2 s^−1 with temperatures of 25° C. day and 19° C. night and 65% relative humidity. When the plants were at the two to four-leaf stage, they were treated with the various ACCase-inhibiting herbicides at 0, 15, 30, 60, 120 and 240 g ai ha^−1 in a spray cabinet mounted with a single mobile Teejet flat fan nozzle (11002VS) calibrated to deliver 200 L ha^−1 at 200 kPa. The L. multiflorum populations were treated by a compound of Formula Ic, clodinafop-propargyl, pinoxaden, cycloxydim and clethodim and the warm season grass weeds E. indica, D. insularis, S. halepense and E. crus-galli were sprayed with a Compound Ic and the commonly employed haloxyfop-methyl and clethodim. Three replicate pots were used per population. Plants were assessed for visual damage compared to the untreated control 21 days after application (0=0% damage; 100=100% damage).

[3] = system: Digitaria insularis; experiment: Further glasshouse test versus other ACCase-inhibiting herbicides, Table B2-3; conditions: 21 days after application
Text: as §1, §2

Question: How did the visual damage ([1]; Table B1-2, biotype D2078G + W2027C (heterozygous), first entry, 60 g/ha) turn out when CC#Cc1ccc(C2=C(OC(=O)OC)C3CCC(C3)C2=O)c(OC)c1 (stereo not shown) [Compound Ic] was run?
Answer: 100%

Question: What about the visual damage ([1]; Table B1-2, biotype D2078G + W2027C (heterozygous), first entry, 120 g/ha) of the same molecule?
Answer: 100%

Question: And the visual damage ([1]; Table B1-2, biotype D2078G + W2027C (heterozygous), second entry, 15 g/ha)?
Answer: 83%

Question: What about the visual damage ([1]; Table B1-2, biotype D2078G + W2027C (heterozygous), second entry, 30 g/ha) of the same molecule?
Answer: 100%

Question: And the visual damage ([1]; Table B1-2, biotype D2078G + W2027C (heterozygous), second entry, 60 g/ha)?
Answer: 100%

Question: And the visual damage ([1]; Table B1-2, biotype D2078G + W2027C (heterozygous), second entry, 120 g/ha)?
Answer: 100%

Question: What about the visual damage ([1]; Table B1-2, biotype I2041N (heterozygous), 15 g/ha) of the same molecule?
Answer: 70%

Question: And the visual damage ([1]; Table B1-2, biotype I2041N (heterozygous), 30 g/ha)?
Answer: 100%

Question: And the visual damage ([1]; Table B1-2, biotype I2041N (heterozygous), 60 g/ha)?
Answer: 100%

Question: What about the visual damage ([1]; Table B1-2, biotype I2041N (heterozygous), 120 g/ha) of the same molecule?
Answer: 100%

Question: And the visual damage ([1]; Table B1-2, biotype NTSR (non-target site resistance), 1 g/ha)?
Answer: 20%

Question: What about the visual damage ([1]; Table B1-2, biotype NTSR (non-target site resistance), 2 g/ha) of the same molecule?
Answer: 40%

Question: And the visual damage ([1]; Table B1-2, biotype NTSR (non-target site resistance), 4 g/ha)?
Answer: 60%

Question: What about the visual damage ([1]; Table B1-2, biotype NTSR (non-target site resistance), 8 g/ha) of the same molecule?
Answer: 73%

Question: And the visual damage ([1]; Table B1-2, biotype Sensitive, 15 g/ha)?
Answer: 100%

Question: What about the visual damage ([1]; Table B1-2, biotype Sensitive, 30 g/ha) of the same molecule?
Answer: 100%

Question: And the visual damage ([1]; Table B1-2, biotype Sensitive, 60 g/ha)?
Answer: 100%

Question: What about the visual damage ([1]; Table B1-2, biotype Sensitive, 120 g/ha) of the same molecule?
Answer: 100%

Question: And the visual damage ([1]; Table B1-3, Pop1 (mix of sensitive, D2078G and G2096A biotypes), 15 g/ha)?
Answer: 98%

Question: What about the visual damage ([1]; Table B1-3, Pop1 (mix of sensitive, D2078G and G2096A biotypes), 30 g/ha) of the same molecule?
Answer: 100%

Question: What about the visual damage ([1]; Table B1-3, Pop1 (mix of sensitive, D2078G and G2096A biotypes), 60 g/ha) of the same molecule?
Answer: 100%

Question: And the visual damage ([1]; Table B1-3, Pop1 (mix of sensitive, D2078G and G2096A biotypes), 120 g/ha)?
Answer: 100%

Question: What about the visual damage ([1]; Table B1-3, Pop2 (mix of sensitive, D2078G and G2096A biotypes), 15 g/ha) of the same molecule?
Answer: 86%

Question: And the visual damage ([1]; Table B1-3, Pop2 (mix of sensitive, D2078G and G2096A biotypes), 30 g/ha)?
Answer: 100%

Question: And the visual damage ([1]; Table B1-3, Pop2 (mix of sensitive, D2078G and G2096A biotypes), 60 g/ha)?
Answer: 100%

Question: What about the visual damage ([1]; Table B1-3, Pop2 (mix of sensitive, D2078G and G2096A biotypes), 120 g/ha) of the same molecule?
Answer: 100%

Question: And the visual damage ([1]; Table B1-3, biotype Sensitive, 15 g/ha)?
Answer: 100%

Question: And the visual damage ([1]; Table B1-3, biotype Sensitive, 30 g/ha)?
Answer: 100%

Question: And the visual damage ([1]; Table B1-3, biotype Sensitive, 60 g/ha)?
Answer: 100%

Question: And the visual damage ([1]; Table B1-3, biotype Sensitive, 120 g/ha)?
Answer: 100%

Question: And the visual damage ([2]; biotype Sensitive, 15 g/ha)?
Answer: 100%

Question: What about the visual damage ([2]; biotype Sensitive, 30 g/ha) of the same molecule?
Answer: 100%

Question: And the visual damage ([2]; biotype Sensitive, 60 g/ha)?
Answer: 100%

Question: What about the visual damage ([2]; biotype Sensitive, 120 g/ha) of the same molecule?
Answer: 100%

Question: What about the visual damage ([2]; biotype Sensitive, 240 g/ha) of the same molecule?
Answer: 100%

Question: And the visual damage ([2]; biotype W2027C, 15 g/ha)?
Answer: 100%

Question: And the visual damage ([2]; biotype W2027C, 30 g/ha)?
Answer: 100%

Question: And the visual damage ([2]; biotype W2027C, 60 g/ha)?
Answer: 100%

Question: And the visual damage ([2]; biotype W2027C, 120 g/ha)?
Answer: 100%

Question: What about the visual damage ([2]; biotype W2027C, 240 g/ha) of the same molecule?
Answer: 100%

Question: And the visual damage ([2]; population ECG-NTSR-1 (non-target-site resistance), 15 g/ha)?
Answer: 90%

Question: And the visual damage ([2]; population ECG-NTSR-1 (non-target-site resistance), 30 g/ha)?
Answer: 100%

Question: What about the visual damage ([2]; population ECG-NTSR-1 (non-target-site resistance), 60 g/ha) of the same molecule?
Answer: 100%

Question: What about the visual damage ([2]; population ECG-NTSR-1 (non-target-site resistance), 120 g/ha) of the same molecule?
Answer: 100%

Question: What about the visual damage ([2]; population ECG-NTSR-1 (non-target-site resistance), 240 g/ha) of the same molecule?
Answer: 100%

Question: And the visual damage ([3]; biotype Sensitive, 15 g/ha)?
Answer: 100%

Question: What about the visual damage ([3]; biotype Sensitive, 30 g/ha) of the same molecule?
Answer: 100%

Question: And the visual damage ([3]; biotype Sensitive, 60 g/ha)?
Answer: 100%

Question: And the visual damage ([3]; biotype Sensitive, 120 g/ha)?
Answer: 100%

Question: And the visual damage ([3]; biotype Sensitive, 240 g/ha)?
Answer: 100%

Question: What about the visual damage ([3]; biotype W2027C, 15 g/ha) of the same molecule?
Answer: 100%

Question: What about the visual damage ([3]; biotype W2027C, 30 g/ha) of the same molecule?
Answer: 100%

Question: And the visual damage ([3]; biotype W2027C, 60 g/ha)?
Answer: 100%

Question: What about the visual damage ([3]; biotype W2027C, 120 g/ha) of the same molecule?
Answer: 100%

Question: What about the visual damage ([3]; biotype W2027C, 240 g/ha) of the same molecule?
Answer: 100%
